Data reported in ChEMBL document CHEMBL4619774 (J Med Chem, 2020).

Tests used:
Coagulation factor XI [1] = molecular target: T1, Coagulation factor XI (Homo sapiens, UniProt P03951); assay: Inhibition of human F11a using D-Leu-Pro-Arg*Rh110-D-Pro as substrate preincubated for 60 mins followed by substrate addition and measured after 60 mins by fluorescence assay
Plasma kallikrein = Plasma kallikrein (Homo sapiens, UniProt P03952); assay type: single protein
Coagulation factor XI [2] = molecular target: T1, Coagulation factor XI; assay: Inhibition of […] human plasma F11a catalytic domain expressed in Escherichia coli strain BL21(DE3) using D-Leu-Pro-Arg*Rh110-D-Pro as substrate preincubated for 60 mins followed by substrate addition and measured after 60 mins by fluorescence assay
[3] = Apparent permeability across apical to basolateral side in MDCK-MDR1 cells; assay type: ADME, cell-based, Canis lupus familiaris; conditions: dog
[4] = Dose normalized AUC in C57BL/6 mouse at 1 mg/kg, iv by LC-MS/MS analysis; assay type: ADME, organism-based; conditions: in vivo
Coagulation factor VII = molecular target: T2, Coagulation factor VII (Homo sapiens, UniProt P08709); assay type: single protein
T2 sequence (P08709 whole entry): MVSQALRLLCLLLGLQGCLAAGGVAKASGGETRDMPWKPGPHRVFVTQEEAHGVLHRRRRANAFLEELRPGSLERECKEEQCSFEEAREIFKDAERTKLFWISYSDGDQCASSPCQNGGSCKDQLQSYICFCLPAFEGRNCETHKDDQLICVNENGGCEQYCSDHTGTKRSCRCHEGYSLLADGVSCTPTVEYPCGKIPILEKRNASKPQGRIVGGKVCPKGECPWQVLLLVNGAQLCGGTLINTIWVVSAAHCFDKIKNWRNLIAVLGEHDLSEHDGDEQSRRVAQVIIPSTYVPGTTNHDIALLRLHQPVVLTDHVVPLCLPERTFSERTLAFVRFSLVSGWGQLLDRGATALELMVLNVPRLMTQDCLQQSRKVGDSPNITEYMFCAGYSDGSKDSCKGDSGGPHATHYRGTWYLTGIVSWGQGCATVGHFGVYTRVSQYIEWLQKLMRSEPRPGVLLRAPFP

Coagulation factor IX = Coagulation factor IX (Homo sapiens, UniProt P00740); assay type: single protein
Prothrombin = Prothrombin (Homo sapiens, UniProt P00734); assay type: single protein
[5] = molecular target: Tissue-type plasminogen activator (Homo sapiens, UniProt P00750); assay type: single protein
Plasminogen = Plasminogen (Homo sapiens, UniProt P00747); assay type: single protein
[6] = Terminal half life in C57BL/6 mouse at 0.4 mg/kg, iv bolus injection or 3 mg/kg, po by LC-MS/MS analysis; assay type: ADME, organism-based; conditions: in vivo, read-out: beta t1/2 (converted)
[7] = Oral bioavailability in C57BL/6 mouse at 3 mg/kg by LC-MS/MS analysis; assay type: ADME, organism-based; conditions: in vivo
[8] = Dose normalized Cmax in C57BL/6 mouse at 0.4 mg/kg, iv bolus injection or 3 mg/kg, po by LC-MS/MS analysis; assay type: ADME, organism-based; conditions: in vivo
[9] = Oral bioavailability in C57BL/6 mouse at 100 mg/kg by LC-MS/MS analysis; assay type: ADME, organism-based; conditions: in vivo
[10] = Dose normalized Cmax in C57BL/6 mouse at 100 mg/kg, po by LC-MS/MS analysis; assay type: ADME, organism-based; conditions: in vivo
[11] = Tmax in C57BL/6 mouse at 100 mg/kg, po by LC-MS/MS analysis; assay type: ADME, organism-based; conditions: in vivo
[12] = Dose normalized Cmax in Sprague-Dawley rat at 3 mg/kg, po via gavage by HPLC-MS/MS analysis; assay type: ADME, organism-based; conditions: in vivo
[13] = Dose normalized AUC (0 to t) in Sprague-Dawley rat at 30 mg/kg, po via gavage by HPLC-MS/MS analysis; assay type: ADME, organism-based; conditions: in vivo
[14] = Dose normalized AUC (0 to t) in Sprague-Dawley rat at 100 mg/kg, po via gavage by HPLC-MS/MS analysis; assay type: ADME, organism-based; conditions: in vivo
[15] = Oral bioavailability in Sprague-Dawley rat at 3 mg/kg via gavage by HPLC-MS/MS analysis; assay type: ADME, organism-based; conditions: in vivo
[16] = Oral bioavailability in Sprague-Dawley rat at 30 mg/kg via gavage by HPLC-MS/MS analysis; assay type: ADME, organism-based; conditions: in vivo
[17] = Oral bioavailability in Sprague-Dawley rat at 100 via gavage mg/kg by HPLC-MS/MS analysis; assay type: ADME, organism-based; conditions: in vivo, 100 mg/kg
[18] = Dose normalized AUC (0 to t) in beagle dog at 75 mg/kg, po via gavage by HPLC-MS/MS analysis; assay type: ADME, organism-based, Canis lupus familiaris; conditions: in vivo
[19] = Oral bioavailability in beagle dog at 10 mg/kg via gavage by HPLC-MS/MS analysis; assay type: ADME, organism-based, Canis lupus familiaris; conditions: in vivo
[20] = Oral bioavailability in beagle dog at 75 mg/kg via gavage by HPLC-MS/MS analysis; assay type: ADME, organism-based, Canis lupus familiaris; conditions: in vivo
[21] = Volume of distribution at steady state in Sprague-Dawley rat at 1 mg/kg, iv administered as bolus dose by HPLC-MS/MS analysis; assay type: ADME, organism-based; conditions: in vivo, read-out: Vdss
[22] = Half life in Sprague-Dawley rat at 1 mg/kg, iv administered as bolus dose by HPLC-MS/MS analysis; assay type: ADME, organism-based; conditions: in vivo
[23] = AUC (0 to t) in beagle dog at 1 mg/kg, iv by HPLC-MS/MS analysis; assay type: ADME, organism-based, Canis lupus familiaris; conditions: in vivo
[24] = Volume of distribution at steady state in beagle dog at 1 mg/kg, iv by HPLC-MS/MS analysis; assay type: ADME, organism-based, Canis lupus familiaris; conditions: in vivo, read-out: Vdss
[25] = Clearance in beagle dog at 1 mg/kg, iv administered as bolus dose by HPLC-MS/MS analysis; assay type: ADME, organism-based, Canis lupus familiaris; conditions: in vivo
[26] = Half life in beagle dog at 1 mg/kg, iv by HPLC-MS/MS analysis; assay type: ADME, organism-based, Canis lupus familiaris; conditions: in vivo
Bile salt export pump = Bile salt export pump (Homo sapiens, UniProt O95342); assay: Inhibition of BSEP (unknown origin)
[27] = Efflux ratio of apparent permeability from basolateral to apical side over apical to basolateral side in MDCK-MDR1 cells; assay type: ADME, cell-based, Canis lupus familiaris; conditions: dog
Plasma [28] = assay: Anticoagulant activity in human plasma assessed as concentration required to double the activated partial thromboplastin time incubated for 3 mins followed by calcium chloride addition by aPTT-s reagent based automated coagulometric method; assay type: functional
Plasma [29] = assay: Effect on coagulation in human plasma assessed as concentration required to double the prothrombin time by thromboplastin-DS reagent based automated coagulometric method; assay type: ADME, cell-free
physchem = conditions: buffer, pH 7.4

T1 sequence (P03951 19-387 limits assumed): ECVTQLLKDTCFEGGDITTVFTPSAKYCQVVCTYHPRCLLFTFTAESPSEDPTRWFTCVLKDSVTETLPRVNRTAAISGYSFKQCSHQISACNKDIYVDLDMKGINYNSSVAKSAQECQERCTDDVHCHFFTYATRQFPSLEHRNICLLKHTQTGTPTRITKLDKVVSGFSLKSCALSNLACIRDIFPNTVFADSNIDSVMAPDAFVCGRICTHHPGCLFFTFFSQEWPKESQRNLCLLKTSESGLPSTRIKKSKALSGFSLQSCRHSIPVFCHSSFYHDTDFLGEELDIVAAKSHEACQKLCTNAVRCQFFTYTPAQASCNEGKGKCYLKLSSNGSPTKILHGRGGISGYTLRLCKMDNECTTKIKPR
T1 sequence (P03951 388-625 limits assumed): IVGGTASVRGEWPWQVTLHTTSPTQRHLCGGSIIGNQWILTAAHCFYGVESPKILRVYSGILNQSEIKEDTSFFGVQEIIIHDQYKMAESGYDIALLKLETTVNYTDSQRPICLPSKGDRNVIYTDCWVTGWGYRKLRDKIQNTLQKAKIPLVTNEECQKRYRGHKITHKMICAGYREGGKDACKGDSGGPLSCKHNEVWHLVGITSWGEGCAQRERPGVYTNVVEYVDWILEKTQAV
Sequence of Coagulation factor IX (P00740 47-191 limits assumed): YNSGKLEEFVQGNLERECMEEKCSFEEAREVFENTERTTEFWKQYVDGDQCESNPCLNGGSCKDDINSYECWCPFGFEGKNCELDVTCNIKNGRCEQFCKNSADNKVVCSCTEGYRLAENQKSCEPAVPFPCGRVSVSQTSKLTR
Sequence of Coagulation factor IX (P00740 227-461 limits assumed): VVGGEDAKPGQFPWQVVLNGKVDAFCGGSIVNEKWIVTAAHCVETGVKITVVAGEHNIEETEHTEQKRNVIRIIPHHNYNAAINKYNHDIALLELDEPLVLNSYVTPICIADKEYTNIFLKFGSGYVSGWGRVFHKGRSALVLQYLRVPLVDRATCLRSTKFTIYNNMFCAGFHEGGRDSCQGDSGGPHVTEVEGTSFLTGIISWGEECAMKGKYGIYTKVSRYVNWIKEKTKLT
Sequence of Tissue-type plasminogen activator (P00750 whole entry): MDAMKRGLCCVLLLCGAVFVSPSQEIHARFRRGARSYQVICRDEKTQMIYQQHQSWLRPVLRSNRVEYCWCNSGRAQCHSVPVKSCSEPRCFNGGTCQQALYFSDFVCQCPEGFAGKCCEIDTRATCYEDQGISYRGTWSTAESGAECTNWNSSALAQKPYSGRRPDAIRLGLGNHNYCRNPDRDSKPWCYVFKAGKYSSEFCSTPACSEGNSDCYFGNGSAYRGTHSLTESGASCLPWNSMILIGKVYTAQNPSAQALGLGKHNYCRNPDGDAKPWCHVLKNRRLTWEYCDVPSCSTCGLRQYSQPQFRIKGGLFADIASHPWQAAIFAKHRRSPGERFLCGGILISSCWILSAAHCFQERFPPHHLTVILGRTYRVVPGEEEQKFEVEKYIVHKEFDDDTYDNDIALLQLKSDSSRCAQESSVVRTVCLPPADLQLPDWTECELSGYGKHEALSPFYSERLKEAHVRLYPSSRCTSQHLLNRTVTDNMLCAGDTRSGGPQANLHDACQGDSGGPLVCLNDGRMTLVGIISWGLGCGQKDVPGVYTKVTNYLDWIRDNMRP
Sequence of Plasma kallikrein (P03952 20-390 limits assumed): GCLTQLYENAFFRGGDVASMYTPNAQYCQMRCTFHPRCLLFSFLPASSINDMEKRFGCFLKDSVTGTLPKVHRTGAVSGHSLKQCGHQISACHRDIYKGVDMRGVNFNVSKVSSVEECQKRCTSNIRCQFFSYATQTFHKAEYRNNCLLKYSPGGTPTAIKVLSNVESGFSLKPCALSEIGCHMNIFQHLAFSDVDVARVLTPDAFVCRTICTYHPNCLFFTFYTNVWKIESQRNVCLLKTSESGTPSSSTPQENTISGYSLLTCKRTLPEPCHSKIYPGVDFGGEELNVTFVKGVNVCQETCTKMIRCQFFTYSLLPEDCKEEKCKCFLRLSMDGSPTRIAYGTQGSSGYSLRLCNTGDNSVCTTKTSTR
Sequence of Plasma kallikrein (P03952 391-638 limits assumed): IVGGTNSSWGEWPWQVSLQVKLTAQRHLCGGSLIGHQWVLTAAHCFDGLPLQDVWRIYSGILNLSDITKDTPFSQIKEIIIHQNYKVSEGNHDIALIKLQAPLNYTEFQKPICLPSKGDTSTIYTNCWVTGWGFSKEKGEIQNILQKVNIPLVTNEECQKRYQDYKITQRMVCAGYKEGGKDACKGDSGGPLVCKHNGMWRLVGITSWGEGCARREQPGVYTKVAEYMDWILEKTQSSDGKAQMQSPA
Sequence of Plasminogen (P00747 97-580 limits assumed): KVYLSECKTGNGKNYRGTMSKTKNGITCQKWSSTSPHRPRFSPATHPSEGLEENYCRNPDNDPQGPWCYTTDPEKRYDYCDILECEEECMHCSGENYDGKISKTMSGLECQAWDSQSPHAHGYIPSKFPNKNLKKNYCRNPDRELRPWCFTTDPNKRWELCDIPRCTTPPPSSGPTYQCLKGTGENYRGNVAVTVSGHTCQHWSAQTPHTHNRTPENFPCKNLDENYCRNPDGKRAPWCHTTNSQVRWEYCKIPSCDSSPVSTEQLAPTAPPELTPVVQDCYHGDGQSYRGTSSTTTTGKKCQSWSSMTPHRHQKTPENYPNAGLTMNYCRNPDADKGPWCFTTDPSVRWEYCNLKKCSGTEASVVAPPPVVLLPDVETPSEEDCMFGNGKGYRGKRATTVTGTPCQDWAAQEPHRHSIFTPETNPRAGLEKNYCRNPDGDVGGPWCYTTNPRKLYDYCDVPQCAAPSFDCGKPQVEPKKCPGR
Sequence of Plasminogen (P00747 581-810 limits assumed): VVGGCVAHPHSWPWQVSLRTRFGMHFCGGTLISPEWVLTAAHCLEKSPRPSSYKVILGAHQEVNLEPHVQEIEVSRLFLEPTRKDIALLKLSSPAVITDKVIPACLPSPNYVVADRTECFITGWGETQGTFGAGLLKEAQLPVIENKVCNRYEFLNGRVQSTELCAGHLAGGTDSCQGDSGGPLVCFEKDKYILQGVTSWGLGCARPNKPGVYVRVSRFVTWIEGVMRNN
Sequence of Bile salt export pump (O95342 whole entry): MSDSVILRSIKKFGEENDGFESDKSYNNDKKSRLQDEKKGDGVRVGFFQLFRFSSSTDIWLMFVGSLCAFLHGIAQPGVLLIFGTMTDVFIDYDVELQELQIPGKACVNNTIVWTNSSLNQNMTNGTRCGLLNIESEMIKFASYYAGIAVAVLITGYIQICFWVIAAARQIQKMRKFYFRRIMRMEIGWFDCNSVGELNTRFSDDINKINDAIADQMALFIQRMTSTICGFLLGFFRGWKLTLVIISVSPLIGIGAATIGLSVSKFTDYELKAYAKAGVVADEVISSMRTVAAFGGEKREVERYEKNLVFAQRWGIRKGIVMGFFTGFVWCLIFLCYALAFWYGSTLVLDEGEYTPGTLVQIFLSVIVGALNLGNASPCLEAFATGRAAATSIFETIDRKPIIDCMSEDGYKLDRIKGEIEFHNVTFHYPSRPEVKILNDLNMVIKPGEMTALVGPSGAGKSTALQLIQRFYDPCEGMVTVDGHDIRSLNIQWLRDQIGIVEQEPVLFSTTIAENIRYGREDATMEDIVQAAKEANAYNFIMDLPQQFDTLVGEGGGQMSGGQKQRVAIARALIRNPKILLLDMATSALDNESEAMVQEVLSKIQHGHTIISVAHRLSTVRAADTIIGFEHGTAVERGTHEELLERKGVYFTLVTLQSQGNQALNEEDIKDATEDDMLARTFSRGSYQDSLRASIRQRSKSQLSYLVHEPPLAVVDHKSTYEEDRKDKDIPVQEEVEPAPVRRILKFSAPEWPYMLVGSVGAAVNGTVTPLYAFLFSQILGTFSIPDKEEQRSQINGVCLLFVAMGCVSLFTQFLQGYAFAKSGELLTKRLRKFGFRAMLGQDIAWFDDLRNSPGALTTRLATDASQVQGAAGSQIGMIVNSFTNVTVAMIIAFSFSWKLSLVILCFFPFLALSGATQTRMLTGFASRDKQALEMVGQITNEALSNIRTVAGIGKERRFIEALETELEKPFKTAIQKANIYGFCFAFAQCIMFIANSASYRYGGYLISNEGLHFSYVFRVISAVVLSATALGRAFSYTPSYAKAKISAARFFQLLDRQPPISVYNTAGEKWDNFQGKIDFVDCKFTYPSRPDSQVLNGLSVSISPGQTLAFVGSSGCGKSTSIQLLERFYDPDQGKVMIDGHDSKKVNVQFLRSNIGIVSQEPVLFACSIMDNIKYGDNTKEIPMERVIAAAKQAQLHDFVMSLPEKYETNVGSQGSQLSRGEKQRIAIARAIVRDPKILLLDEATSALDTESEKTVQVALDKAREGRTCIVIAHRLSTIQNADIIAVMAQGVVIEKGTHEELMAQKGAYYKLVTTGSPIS

IC50 (Coagulation factor XI [1]): 0.4 nM | IC50 (Plasma kallikrein): 1 nM | IC50 (Coagulation factor XI [2]): 10 nM | Papp A→B [3]: 0.4 ×10⁻⁶ cm/s | AUC/dose [4]: 3264 nM·h | IC50 (Coagulation factor VII): 3650 nM | IC50 (Coagulation factor IX): 1920 nM | IC50 (Prothrombin): 2570 nM | IC50 [5]: 250 nM | IC50 (Plasminogen): 1890 nM | half-life [6]: 3.73 h | bioavailability [7]: 16% | Cmax/dose [8]: 494 nM | bioavailability [9]: 100% | Cmax/dose [10]: 26795 nM | Tmax [11]: 4 h | Cmax/dose [12]: 77 nM | AUCt/dose [13]: 621 nM·h | AUCt/dose [14]: 1770 nM·h | bioavailability [15]: 10% | bioavailability [16]: 19% | bioavailability [17]: 45% | AUCt/dose [18]: 2200 nM·h | bioavailability [19]: 5% | bioavailability [20]: 21% | Vd [21]: 1.3 L/kg | half-life [22]: 6.4 h | AUC(0-t) [23]: 10.7 µM·h | Vd [24]: 0.3 L/kg | clearance [25]: 4.4 mL/min/kg | half-life [26]: 2.8 h | efflux ratio [27]: 21.5 | 2PT (Plasma [29]): 28.7 µM | logD (physchem): 2.2
SMILES: CC(C)c1cc(-c2ccc3c(c2)[C@H](N)CO3)cc([C@H](O)Cn2ccc3cccc(C(=O)O)c32)c1
IC50 (Bile salt export pump): 28000 nM | 2aPTT (Plasma [28]): 1.3 µM
